Results reported in patent publication US20210393642A1, “COMPOSITION FOR PREVENTING OR TREATING SJOGREN'S SYNDROME” (SAMJIN PHARMACEUTICAL CO., LTD., priority 2018, published 2021).

Key:
IL-6 = assay: Quantitative RT-PCR of mRNA in lacrimal and salivary gland tissues, IL-6; format: in vivo, mice; conditions: N=6
IL-2 = assay: Quantitative RT-PCR of mRNA in lacrimal and salivary gland tissues, IL-2; format: in vivo, mice; conditions: N=6, FIGS. 4a, 4b
CXCR5 = assay: Quantitative RT-PCR of mRNA in lacrimal and salivary gland tissues, CXCR5; format: in vivo, mice; conditions: N=6
FLT3L = assay: Quantitative RT-PCR of mRNA in lacrimal and salivary gland tissues, FLT3L; format: in vivo, mice; conditions: N=6
anti-SSB/La = assay: Quantification (ELISA) of autoantibody anti-SSB/La in plasma; format: in vivo, mice
Excerpt: (§1) As markers of Sjogren's syndrome, anti-SSA/Ro (Signosis, #EA-5202, US) and anti-SSB/La (Signosis, #EA-5204, US), which are autoantibodies based on RNP particles, and interleukin-17A cytokine (Signosis, #EA-2516, US) which is involved in the onset of autoimmune diseases, were quantified by Enzyme-linked ImmunoSorbent Assay (ELISA) in order to determine the secretion and production of these markers in serum.

IL-13 = assay: Quantitative RT-PCR of mRNA in lacrimal and salivary gland tissues, IL-13; format: in vivo, mice; conditions: N=6
interferon-g = assay: Quantitative RT-PCR of mRNA in lacrimal and salivary gland tissues, interferon-g; format: in vivo, mice; conditions: N=6
TNF-α = assay: Quantitative RT-PCR of mRNA in lacrimal and salivary gland tissues, TNF-α; format: in vivo, mice; conditions: N=6
BAFF = assay: Quantitative RT-PCR of mRNA in lacrimal and salivary gland tissues, BAFF; format: in vivo, mice; conditions: N=6
IL-17A [1] = assay: Quantification (ELISA) of cytokine IL-17A in plasma; format: in vivo, mice; conditions: versus control, N=3, FIG. 5
Excerpt: as §1

IL-22 = assay: Quantitative RT-PCR of mRNA in lacrimal and salivary gland tissues, IL-22; format: in vivo, mice; conditions: N=6
p-AKT = assay: Protein expression in lacrimal and salivary gland tissues (immunoblotting), p-AKT; format: in vivo, mice; conditions: versus control, N=3, FIG. 3
Description: (§2) The lacrimal gland and salivary gland tissues of the test animals were isolated, placed in PBS, and homogenized on ice. 1 ml of RIPA lysis buffer (50 mM Tris-Cl pH7.4, 150 mM NaCl, 1 mM EDTA, 1% Triton X-100, 0.1% SDS, 1% sodium deoxycholate, 0.5 mM phenylmethylsulfonyl fluoride, 2 μg/ml leupeptin, 2 μg/ml aprotinin, 10 mM NaF, and 1 mM sodium orthovanadate) was added to each homogenized tissue which was then kept on ice for 5 minutes. Each tissue solution was then centrifuged (at 13000 rpm for 20 mins), and only the supernatant was collected, and then protein correction was performed. Samples were incubated with anti-Akt (1:400) and anti-interleukin 17A (1:200) antibodies and subjected to immunoprecipitation (IP) (overnight), followed by sampling. Each of the samples was subjected to SDS-PAGE and transferred to polyvinylidene fluoride (PVDF) membranes. Then, the Akt-IP-samples were incubated with phospho-Akt (S473) (diluted at 1:100,000 in blocking buffer (TBS+Tween20)+0.1% skim milk) at 4° C. overnight, and the IL-17A-IP-samples were incubated with IL-17A primary antibody (diluted at 1:100,000 in blocking buffer (TBS+Tween20)+0.1% skim milk) at 4° C. overnight. Next, the samples were incubated with HRP-conjugated secondary antibody, and then protein bands were visualized with ECL solution in the dark and quantified by exposure to X-ray films.

IFN-α = assay: Quantitative RT-PCR of mRNA in lacrimal and salivary gland tissues, IFN-α; format: in vivo, mice; conditions: N=6
IL-21 = assay: Quantitative RT-PCR of mRNA in lacrimal and salivary gland tissues, IL-21; format: in vivo, mice; conditions: N=6
IL-12 = assay: Quantitative RT-PCR of mRNA in lacrimal and salivary gland tissues, IL-12; format: in vivo, mice; conditions: N=6
[2] = tested on: disease model of Sjogren's syndrome (Nfkbiz^−/− or IkB-ξ-deficient mice, C57BL/6); assay: Tear production measurement (Schirmer test, phenol red thread); format: in vivo; conditions: oral, 80 mg/kg b.i.d, 5 weeks; versus control (Ctrl) group; N=11; FIG. 1
Description: Hereinafter, experiments for evaluating the anti-inflammatory effect and tissue regeneration effect of oral administration of the composition according to one embodiment of the present invention by using a disease model of Sjogren's syndrome (Nfkbiz^−/− or IkB-ξ-deficient mice, C57BL/6) will be described in detail.
Tear production was measured using a phenol red thread (Zone-Quick; Oasis, Glendora, Calif.) 1 minute after animal anesthesia. One end of the phenol red thread was placed against the lower eyelid of the lateral canthus of the animal eye and left to stand for 60 seconds. After the thread was soaked with tear by the capillary phenomenon, the length (mm) of the thread whose color changed was measured. When the amount of tear secretion decreases, dry eye caused by Sjogren syndrome symptoms is promoted. Thus, it was determined that the greater the amount of tear secretion, the greater the effect of the test substance.

IL-17A [3] = assay: Quantitative RT-PCR of mRNA in lacrimal and salivary gland tissues, IL-17A; format: in vivo, mice; conditions: N=6
anti-SSA/Ro = assay: Quantification (ELISA) of autoantibody anti-SSA/Ro in plasma; format: in vivo, mice
Excerpt: as §1

[4] = tested on: disease model of Sjogren's syndrome (Nfkbiz^−/− or IkB-ξ-deficient mice, C57BL/6); assay: Analysis of inflammatory phenotypes in animals (disease scores); format: in vivo; conditions: compared to control group, from 2 weeks after administration; N=11; FIG. 7
Excerpt: The degree of inflammation in the animal model was scored according to the following criteria and analyzed.
2: eyes with discharge that were difficult to open
3: periocular skin erosion
4: inflammation reaching perioral skin
5: erosion and loss of hair in whole face.

CXCL13 = assay: Quantitative RT-PCR of mRNA in lacrimal and salivary gland tissues, CXCL13; format: in vivo, mice; conditions: N=6
IL-18 = assay: Quantitative RT-PCR of mRNA in lacrimal and salivary gland tissues, IL-18; format: in vivo, mice; conditions: N=6
IL-17A [5] = assay: Protein expression in lacrimal and salivary gland tissues (immunoblotting), IL-17A; format: in vivo, mice; conditions: dose of 100 mg/kg as printed; compared to control group; FIG. 3
Description: as §2

[6] = IkB-ξ-deficient male mice, 80 mg/kg, n = 3, vehicle = 100.0

SMILES: O=C(NC(Cc1cc(=O)[nH]c2ccccc12)C(=O)OCCN1CCOCC1)c1ccc(Cl)cc1.O=C(O)CC(=O)O (stereo not drawn) [SA001, 2-(morpholin-4-yl)ethyl 2-(4-chlorobenzoylamino)-3-(2-oxo-1,2-dihydroquinolin-4-yl)propionate malonate]
- IL-6 mRNA, decrease compared with control (IL-6; lacrimal glands): 2 fold
- IL-6 mRNA, decrease compared with control (IL-6; salivary glands): 2.5 fold
- IL-2 mRNA, decrease compared with control (IL-2; lacrimal glands): 4.5 fold
- IL-2 mRNA, decrease compared with control (IL-2; salivary glands): 1.3 fold
- CXCR5 mRNA, decrease compared with control (CXCR5; lacrimal glands): not significant
- CXCR5 mRNA, decrease compared with control (CXCR5; salivary glands): 2.5 fold
- FLT3L mRNA, decrease compared with control (FLT3L; lacrimal glands): 2.5 fold
- FLT3L mRNA, decrease compared with control (FLT3L; salivary glands): 13 fold
- SSB/La, No. (%) (anti-SSB/La; [6]): 67.9 ± 12.4%
- anti-SSB in plasma, decrease compared to control group (anti-SSB/La; N=3, FIG. 5): 30%
- IL-13 mRNA, decrease compared with control (IL-13; lacrimal glands): 2 fold
- IL-13 mRNA, decrease compared with control (IL-13; salivary glands): 10 fold
- interferon-g mRNA, decrease compared with control (interferon-g; lacrimal glands): 1.3 fold
- interferon-g mRNA, decrease compared with control (interferon-g; salivary glands): 1.3 fold
- TNF-α mRNA, decrease compared with control (TNF-α; lacrimal glands): 1.6 fold
- TNF-α mRNA, decrease compared with control (TNF-α; salivary glands): 2.2 fold
- BAFF mRNA, decrease compared with control (BAFF; lacrimal glands): 1.6 fold
- BAFF mRNA, decrease compared with control (BAFF; salivary glands): not significant
- IL-17A in plasma (IL-17A [1]): decreased
- IL-22 mRNA, decrease compared with control (IL-22; lacrimal glands): 1.7 fold
- IL-22 mRNA, decrease compared with control (IL-22; salivary glands): 1.6 fold
- expression of p-AKT (activated form of Akt) (p-AKT): significantly increased
- IFN-α mRNA, decrease compared with control (IFN-α; lacrimal glands): 1.6 fold
- IFN-α mRNA, decrease compared with control (IFN-α; salivary glands): 40 fold
- IL-21 mRNA, decrease compared with control (IL-21; lacrimal glands): 1.6 fold
- IL-21 mRNA, decrease compared with control (IL-21; salivary glands): 20 fold
- IL-12 mRNA, decrease compared with control (IL-12; lacrimal glands): 10 fold
- IL-12 mRNA, decrease compared with control (IL-12; salivary glands): not significant
- tear production [2]: significantly increased
- IL-17A mRNA, decrease compared with control (IL-17A [3]; lacrimal glands): 2.8 fold
- IL-17A mRNA, decrease compared with control (IL-17A [3]; salivary glands): 3.3 fold
- SSA/Ro, No. (%) (anti-SSA/Ro; [6]): 61.0 ± 8.7%
- anti-SSA in plasma, decrease compared to control group (anti-SSA/Ro; N=3, FIG. 5): 40%
- onset of the disease (disease score, inflammatory phenotype on five-point scale) [4]: significantly slowed
- CXCL13 mRNA, decrease compared with control (CXCL13; lacrimal glands): 2.5 fold
- CXCL13 mRNA, decrease compared with control (CXCL13; salivary glands): 5 fold
- IL-18 mRNA, decrease compared with control (IL-18; lacrimal glands): not significant
- IL-18 mRNA, decrease compared with control (IL-18; salivary glands): 1.6 fold
- protein expression of IL-17A in the lacrimal gland and salivary gland tissues (IL-17A [5]): significantly decreased
